One series concerns L-M cells. In words: incorporation of labeled compounds into L-M cells. In kind it is cell-based. The note with it: for Incorporation, L-M: 2 nmol labeled compound, one hour, L-M cells; for thymidine kinase-dependent incorporation into cells: L-M versus L-M (TK-) cells; for (L-M)/{L-M(TK-)}: ratio of incorporation, L-M to L-M (TK-), T-test. The method, then: (§1) L-M and L-M (TK-) cells in the logarithmic growth phase were planted on 24-well plates, each carrying 2.0×10^5 cells, and cultured overnight. Then 2 nmol of a radioactive iodine-labeled nucleic acid derivative was added and allowed to be incorporated in the cells for one hour. The cells were washed three times with an ice-cooled phosphate buffer solution, and dissolved in 0.1N NaOH, followed by determination of degree of radioactivity incorporated in the cells using an automatic well-type gamma counter (ARC-380 or ARC-300, Aloka Co., Ltd.). Measurements were analyzed to make evaluations based on the amount of the incorporated label molecules per unit weight of cellular proteins. […] ITdU and [I-125] […] IUR as a control.

Series [1] is described as follows: in vivo label stability, accumulation of free iodine in thyroid gland (Example 17). The conditions noted are these: 185 KBq into tail vein, 10 week old normal mice (C57BL/6), longer intervals, FIG. 8. As to the method: To evaluate in vivo stability of deiodination against each radioactive iodine-labeled nucleic acid derivative, tests were conducted to study accumulation of free iodine in the thyroid gland of normal mice. A 185 KBq of each labeled compound was injected in each of 10 week old normal mice (C57BL/6) into the tail vein, and three animals were sacrificed and anatomized at intervals longer than in Example 16. Incorporation of radioactivity in the thyroid gland was measured with an automatic well-type gamma counter (ARC-300, Aloka Co., Ltd.). Incorporated radioactivity in tissue (% ID) was calculated as the administrated per gram of the tissue, and represented in percentage, as shown in FIG. 8.

Series [2] addresses T1, E. coli-originating thymidine phospholylase (Escherichia coli, UniProt P07650). The note with it: for 5-IU production rate: 0.5–12.0 nmol labeled compound, 0.0009–9.0 units enzyme, n = 3; for 5-IU production rate / metabolic stability of glycosidic bond compared with [I-125] IUR: 25° C.; for Relative activity (C—N glycosidic linkage cleavage): relative to [I-125]IUR = 1.00; for metabolic stability of glycosidic bond compared with [I-125] IUR: thymidine phospholylase.
Protocol: To the reaction liquid, 0.5–12.0 nmol of the labeled compound and 0.0009–9.0 units of a liquid enzyme (Sigma Corporation) was added and reacted at 25° C. for a fixed period of time, followed by treatment in a boiling water bath for 3 minutes to stop the reaction. […] The reaction liquid was subjected to centrifugal separation, and the supernatant was applied over a silica gel plate along with an authentic standard (5-iodouridine: IU) and a non-labeled parent compound. It was developed with a mixture of chloroform and isopropyl alcohol (3:1), and then the autoradiogram was measured with a bioimaging analyzer (BAS-1500, Fuji Photo Film Co., Ltd.). The area of interest was set to peak components of the Rf value corresponding to the authentic standard, and the amount of the resulting metabolite was calculated from its proportion in percentage. […] FITAU and [I-125] IMBAU, a reversed phase silica gel plate was used, and after development with a mixture of methanol and water (3:7), an autoradiogram was measured with a bioimaging analyzer (BAS-1500; Fuji Photo Film Co., Ltd.) similarly to the [I-125] IUR and others.

In another series the test system is L-M (TK-) cells. In words: incorporation of labeled compounds into thymidine kinase-deficient L-M (TK-) cells. The class given is cell-based. The note with it: 2 nmol labeled compound, one hour. The method, then:
as §1

For the next series, the system named is Walker tumor. Briefly: scintigraphy of Walker tumor. The conditions noted are these: 37 MBq into tail vein, four hours after administration, Walker tumor in Wistar rats, FIG. 11. The class given is in vivo. As to the method: Malignant tumor, a typical proliferative disease, was observed by scintigraphy. Walker tumor cells were transplanted subcutaneously in the right inguinal region of Wistar rats. After the transplantation, 37 MBq of [I-123] ITDU was injected into the tail vein of rats that suffered a palpable tumor of about 20 mm that was suitable for scintigraphy. Each tumor-transplanted rat was anesthetized with Ravonal four hours after the administration of a drug. Then the rat was fixed in the face-up position and observed statically with gamma-camera imaging equipment (GCA-90B, Toshiba Corporation). Imaging was performed using a high-resolution medium-energy collimator to obtain images for 10 minutes with a resolution of 256×256.

Series [3] is described as follows: in vivo accumulation in proliferating tissues of normal mice. The conditions noted are these: 185 MBq through tail vein, normal mice (C57BL/6), FIG. 10. As to the method:
To evaluate the accumulation of each radioactive iodine-labeled nucleic acid derivative in proliferating tissues, tests were conducted to study in vivo distribution in normal mice. A 185 MBq of each labeled compound was injected in each of 10 week old normal mice (C57BL/6) through its tail vein, and three animals were sacrificed and anatomized at appropriate intervals. Incorporation of radioactivity in each tissue sample was measured with an automatic well-type gamma counter (ARC-300, Aloka Co., Ltd.). Incorporated radioactivity in tissue was calculated as the administrated dose per unit weight of the tissue, and represented in percentage (% ID/g).

Series [4] deals with T1, E. coli-originating thymidine phospholylase. The conditions noted are these: for relative activity (C—N glycosidic bond cleavage): relative to [I-125]IUR = 1.00; for 5-iodouridine production rate: 2 nmole labeled compound, 9 units enzyme, n = 3; for 5-iodouridine production rate / metabolic stability of glycosidic bond compared with [I-125] IUR: 25° C.; for metabolic stability of glycosidic bond compared with [I-125] IUR: thymidine phospholylase.
Protocol: To the reaction liquid, 2 nmole of the labeled compound and 9 units of a liquid enzyme (Sigma Corporation) were added and reacted at 25° C. for a fixed period of time, and the reaction was stopped by treatment in a boiling water bath for 3 minutes. The reaction liquid was subjected to centrifugal separation, and the supernatant was applied over a thin layer silica gel plate along with an authentic standard (5-iodouridine: IU) and a non-labeled parent compound. It was developed with a mixture of chloroform and isopropyl alcohol (3:1), and then autoradiography was measured with a bioimaging analyzer (BAS-1500, Fuji Photo Film Co., Ltd.). The area of interest was set to peak components of the Rf value corresponding to the authentic standard, and the amount of the resulting metabolite was calculated from its proportion in percentage.

Series [5] in a line: in vivo distribution of [I-125] ITDU in normal mice. The conditions noted are these: 370 KBq into tail vein, FIG. 9.
Protocol: A 370 KBq of [I-125] ITDU was injected in each of 10 week old normal mice into the tail vein, and three animals were sacrificed and anatomized at appropriate intervals. Incorporation of radioactivity in each tissue sample was measured with an automatic well-type gamma counter (ARC-300, Aloka Co., Ltd.). Incorporated radioactivity in tissue was calculated as the administrated dose per gram of the tissue, and represented in percentage, as shown in FIG. 9.
Series [6] in a line: in vivo label stability, accumulation of free iodine in thyroid gland (Example 16). The conditions noted are these: 370 KBq into tail vein, 10 week old normal mice, FIG. 7. The method, then:
To evaluate in vivo label stability of [I-125] ITDU and [I-125] ITAU, tests were conducted to study the accumulation of free iodine in the thyroid gland in normal mice. […] For a control, in vivo distribution of [I-125] IUR was also observed. […] Incorporated radioactivity in tissue was calculated as the administrated dose per gram of the tissue per unit time, and represented in percentage, as shown in FIG. 7. […] ITDU and [I-125]

Another series concerns thymidine kinase. Briefly: in vitro phosphorylation activity by thymidine kinase (crude enzyme from LL/2 cells). In kind it is biochemical, mouse. The note with it: for phosphorylation activity attributed to thymidine kinase: crude enzyme from LL/2 cells; for Phosphorylated material production rate: crude enzyme from LL/2 mouse lung cancer cells, 2 nmole labeled compound, ATP, 37° C., n = 3. The method, then:
Liquid enzyme was extracted from a LL/2 mouse's lung cancer cell strain in the logarithmic growth phase according to the method of Wolcott R M and Colacino J M (Anal. Biochem 178, p.38–40 (1989)). To a reaction liquid containing ATP, which is a phosphate donor, 2 nmole of the label compound and the liquid enzyme were added and reacted at 37° C. for a fixed period of time. The reaction was stopped by adding 1 mL of a 100 mM lanthanum chloride/5 mM triethanolamine solution. Phosphorylated material was prepared by centrifugal separation to form a phosphate-metal complex, followed by measuring a radioactivity of the resulting precipitate with an automatic well-type gamma counter (ARC-380, Aloka Co., Ltd.). […] ITDU and [I-125] ITAU.

For series [7] the following is noted: literature; cited from earlier work.

Structures are written as SMILES. Read-outs that look alike come from different tables or passages of the source. Marks after values point to notes of the source that are not given here. Some results are limits rather than exact numbers.

T1 sequence (P07650 whole entry): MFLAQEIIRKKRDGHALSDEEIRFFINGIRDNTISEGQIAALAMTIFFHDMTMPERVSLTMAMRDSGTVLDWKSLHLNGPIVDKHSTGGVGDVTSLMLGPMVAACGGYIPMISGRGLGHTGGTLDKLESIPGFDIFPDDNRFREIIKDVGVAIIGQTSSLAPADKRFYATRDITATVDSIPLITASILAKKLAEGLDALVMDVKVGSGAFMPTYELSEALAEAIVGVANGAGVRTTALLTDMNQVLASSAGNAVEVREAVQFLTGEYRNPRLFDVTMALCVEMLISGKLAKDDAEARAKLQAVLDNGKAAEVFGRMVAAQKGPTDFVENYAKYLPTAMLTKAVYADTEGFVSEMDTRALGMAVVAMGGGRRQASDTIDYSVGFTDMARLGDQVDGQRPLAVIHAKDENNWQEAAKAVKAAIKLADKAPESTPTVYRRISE

As for `O=c1[nH]c(=O)n([C@@H]2S[C@H](CO)[C@@H](O)[C@@H]2F)cc1[125I]` [[I-125] FITAU, [I-125]-5-iodo-1-(2-deoxy-2-fluoro-4-thio-β-D-arabinopentofuranosyl)uracil], in the series on L-M cells, the “Incorporation, L-M” value came to 0.34 ± 0.05 pmol/mg protein/h; the “thymidine kinase-dependent incorporation into cells” value was “incorporated in cells in a thymidine kinase dependent way”; the “(L-M)/{L-M(TK-)}” value is reported as 1.62***. The “accumulated radioactivity in the thyroid gland (in vivo label stability)” value in series [1] is “significantly smaller than that from the control [I-125] IUR”. In [2], the 5-IU production rate is 0.5 ± 0.1 pmol/units/0.5 h, the “Relative activity (C—N glycosidic linkage cleavage)” value was less than 0.00001 and the “metabolic stability of glycosidic bond compared with [I-125] IUR” value is “still stabler than [I-125] IUR”. Also, in the series on L-M (TK-) cells, the “Incorporation, L-M (TK−)” value turned out to be 0.21 ± 0.05 pmol/mg protein/h.
As for `O=c1[nH]c(=O)n([C@H]2C[C@H](O)[C@@H](CO)S2)cc1[123I]` [[I-123] ITDU, [I-123]-5-iodo-4′-thio-2′-deoxyuridine], in the series with Walker tumor, the “scintigraphic imaging of transplanted tumor” value is “clear imaging of transplanted tumors”.
Take `O=c1[nH]c(=O)n([C@H]2C[C@H](O)[C@@H](CO)O2)cc1I` [[I-125] IUR, 5-iododeoxyuridine, reference compound]: in the series on L-M cells, the “Incorporation, L-M” value turned out to be 77.80 ± 7.45 pmol/mg protein/h; the “thymidine kinase-dependent incorporation into cells” value is on record as “incorporated in cells in a thymidine kinase dependent way”; the “(L-M)/{L-M(TK-)}” value is on record as 2.79*. Also, the “accumulation in proliferating tissues (% ID/g)” value in [3] is “accumulated in large amounts particularly in the thymus”. In addition, in [4], the “relative activity (C—N glycosidic bond cleavage)” value was 1.00. Besides, the “Relative activity (C—N glycosidic linkage cleavage)” value in series [2] is 1.00. Also, in the series with L-M (TK-) cells, the “Incorporation, L-M (TK−)” value was 27.86 ± 2.94 pmol/mg protein/h.
`O=c1[nH]c(=O)n([C@H]2C[C@H](O)[C@@H](CO)S2)cc1[125I]` [[I-125] ITDU, [I-125]-5-iodo-4′-thio-2′-deoxyuridine]: in the series with L-M cells, the “Incorporation, L-M” value is 10.90 ± 1.48 pmol/mg protein/h; the “thymidine kinase-dependent incorporation into cells” value was “incorporated in cells in a thymidine kinase dependent way”; the “(L-M)/{L-M(TK-)}” value was 2.77*. Besides, the “accumulated radioactivity in proliferating tissues (thymus, small intestine) versus non-proliferating tissues (brain, liver, muscle)” value in series [5] was “certainly higher than that in non-proliferating tissues”. In series [1], the “accumulated radioactivity in the thyroid gland (in vivo label stability)” value is “significantly smaller than that from the control [I-125] IUR”. The “accumulated radioactivity in the thyroid gland (in vivo label stability)” value in [6] is “significantly smaller than that from the control [I-125] IUR”. In addition, in the series on thymidine kinase, the “phosphorylation activity attributed to thymidine kinase” value was “confirmed” and the “Phosphorylated material production rate” value amounted to 1182.7 ± 100.1 p mole/mg protein/h. Besides, the “accumulation in proliferating tissues (% ID/g)” value in [3] was “accumulated in large amounts particularly in the thymus”. For the same molecule, in [4], the 5-iodouridine production rate is reported as 4075.9 ± 736.4 p mole/units/30 min, the “relative activity (C—N glycosidic bond cleavage)” value was 0.03 and the “metabolic stability of glycosidic bond compared with [I-125] IUR” value was “stabler than 5-iododeoxyuridine”. Moreover, the 5-IU production rate in series [2] stood at 3778.7 ± 692.0 pmol/units/0.5 h. The “Incorporation, L-M (TK−)” value in the series with L-M (TK-) cells is 3.94 ± 0.63 pmol/mg protein/h.
As to `O=c1[nH]c(=O)n([C@H]2C[C@H](O)[C@@H](CO)O2)cc1I` [5-iodo-deoxyuridine], the stability in vivo entry in series [7] is given as “decomposed rapidly in vivo”.
Turning to `O=c1[nH]c(=O)n([C@@H]2O[C@H](CO)[C@@H](O)[C@@H]2F)cc1I` [2′-fluoro-5-iodoarabinouridine], the stability in vivo entry in series [7] is reported as “high stability in vivo”.
On to `O=c1[nH]c(=O)n(C2S[C@H](CO)[C@@H](O)[C@@H]2O)cc1[125I]` (stereo partly drawn) [[I-125] ITAU, [I-125]-5-iodo-1-(4-thio-D-arabinofuranosyl)uracil], for which, in the series on L-M cells, the “Incorporation, L-M” value amounted to 1.68 ± 0.28 pmol/mg protein/h and the “(L-M)/{L-M(TK-)}” value is 1.40**. In [1], the “accumulated radioactivity in the thyroid gland (in vivo label stability)” value was “significantly smaller than that from the control [I-125] IUR”. The “accumulated radioactivity in the thyroid gland (in vivo label stability)” value in series [6] is “significantly smaller than that from the control [I-125] IUR”. For the same molecule, in the series with thymidine kinase, the “phosphorylation activity attributed to thymidine kinase” value is listed as “confirmed” and the “Phosphorylated material production rate” value amounted to 13.6 ± 6.6 p mole/mg protein/h. Besides, in series [4], the 5-iodouridine production rate is 524.3 ± 373.8 p mole/units/30 min, the “relative activity (C—N glycosidic bond cleavage)” value is on record as less than 0.01 and the “metabolic stability of glycosidic bond compared with [I-125] IUR” value is given as “stabler than 5-iododeoxyuridine”. In series [2], the 5-IU production rate is 514.8 ± 367.0 pmol/units/0.5 h and the “Relative activity (C—N glycosidic linkage cleavage)” value is less than 0.01. Moreover, the “Incorporation, L-M (TK−)” value in the series on L-M (TK-) cells is given as 1.20 ± 0.20 pmol/mg protein/h.
In the case of `Cn1c(=O)c([125I])cn([C@@H]2O[C@H](CO)[C@@H](O)[C@@H]2Br)c1=O` [[I-125] IMBAU, [I-125]-5-iodo-1-methyl-(2-deoxy-2-bromo-β-D-arabinopentofuranosyl)uracil], in [1], the “accumulated radioactivity in the thyroid gland (in vivo label stability)” value is “significantly smaller than that from the control [I-125] IUR”. For the same molecule, in [2], the 5-IU production rate was 0.0 pmol/units/0.5 h, the “Relative activity (C—N glycosidic linkage cleavage)” value turned out to be 0.0 and the “metabolic stability of glycosidic bond compared with [I-125] IUR” value was “still stabler than [I-125] IUR”. Also, in [2] (boiling water bath for 3 minutes used to stop the reaction), the “stability under heat treatment” value was “unstable under heat treatment”.
With `Cc1cn([C@H]2C[C@H](F)[C@@H](CO)O2)c(=O)[nH]c1=O` [3′-deoxy-3′-fluorothymidine], in series [7], the stability in vivo entry is on record as “high stability in vivo”.

The values are drawn from patent US7118731B2, “Drugs for the diagnosis of tissue reproductive activity or the treatment of proliferative diseases” (priority 2002, dated 2006).
